Reference: patent US20260137714A1, “METHODS AND COMPOSITIONS FOR TREATMENT OF OPHTHALMIC DISEASE” (Design Therapeutics, Inc., priority 2022, published 2026)

Legend:
[1] = test system: Immortalized Fuchs endothelial corneal dystrophy cells (F35T); assay: In vitro foci assay (nuclear foci by FISH with (CAG)10-Cy3 oligonucleotide); type: cell-based; settings: 48 h treatment, 3000 to 1 nM
Description: Immortalized Fuchs endothelial corneal dystrophy cells (F35T) were seeded in black-sided clear-bottomed 96 well plates at 5000 cells per well 16 hours prior to compound treatment. Compounds were dissolved in DMSO to 1 mM and diluted to a final concentration of 3000 to 1 nM in F35T cell culture media. Diluted compounds were added to the F35T cells and incubated for 48 h.
Following treatment, cells were fixed in 4% paraformaldehyde for 20 min, washed twice with PBS, and permeabilized with 70% ethanol at −20 deg C. for 16 h. Following permeabilization, cells were washed twice with PBS then hydrated with 30% formamide plus 2×SSC buffer for 10 min. Nuclear foci were labeled using fluorescent in situ hybridization with a (CAG)10-Cy3 oligonucleotide. Images were collected and automated image analysis was performed on a BioTEK Cytation 5.

[2] = Ex vivo bovine eye penetration of compounds formulated in water; type: in vitro ADME; settings: for Cornea, R1 / Descemet Membrane/endothelial cells, R1: bovine eye, 30 min at room temperature, LC-MS, replicate R1
Description: Freshly enucleated bovine eyes (Nebraska Scientific) were treated with compound as described previously (Luschmann et al., “Developing an in situ nanosuspension: a novel approach towards the efficient administration of poorly soluble drugs at the anterior eye”, European Journal of Pharmaceutical Sciences (2013)). Individual eyes were rinsed with 10 mL of sterile 0.9% saline then placed in the bottom of a 600 mL glass beaker (Pyrex). A borosilicate glass powder funnel with a 26 mm diameter stem (Eisco Labs) was gently rested on top of the eye with the cornea centered in the cylindrical opening, creating a sealed dosing chamber in which solutions were applied. Eyes were equilibrated in sterile 0.9% saline at room temperature for 20 min then decanted. 500 μL of 0.1 to 0.3% GeneTAC compound was applied to the cornea followed by 167 μL of sterile water to mimic the instillation a 30 μL eye drop into 10 μL of tear fluid. Compound was incubated for 30 min at room temperature after which the funnel was removed. Next, eyes were washed twice with 10 ml of 5.2% aqueous mannitol solution to remove residual compound. Aqueous humor was recovered using a 28-gauge needle and snap frozen in liquid nitrogen. The cornea was then surgically excised, and the Descemet membrane and corneal endothelium (DM/CE) were removed with fine forceps under a dissecting microscope and snap frozen in liquid nitrogen. Compound abundance was quantified in aqueous humor, anterior cornea, and DM/CE using liquid chromatography-mass spectrometry.

[3] = Compound solubility in water using in situ salt formation with aqueous HCl; type: physicochemical; settings: for Result: appearance at the final concentration; for solubility: aqueous buffer, thermodynamic from solid, water with aqueous HCl, in situ salt formation, started at 10 mg/ml, minimum tested 1 mg/ml, read-out: Final Concentration; for pH: pH of the solution at the end of the experiment, before any aq. NaOH; for pH after aq. NaOH: pH of the solution after adjustment with aq. NaOH
Description: To determine solubility of candidate compounds, solubility of the compounds was determined at a concentration of 10 mg/ml using in situ salt formation with aqueous HCl. First, 0.5 ml of sterile water was added to 10 mg of dry compound, vortexed, and briefly centrifuged. Next, 0.5 equivalents of 0.025 M HCl were added to the mixture followed by a volume of water that totaled 1 ml. The mixture was stirred continuously for 0.5 to 24 h. […] If the solution was not clear, additional water and/or HCl was added, along with continuous stirring and vortexing until it was determined that the compound had completely dissolved or was refractory to dissolution. The minimum concentration tested was 1 mg/ml. pH values were assessed at the end of the experiment.

Cornea, R1 [2] [nM] | Descemet Membrane/endothelial cells, R1 [2] | Result [3] | solubility [3] [µg/mL] | pH [3] | pH after aq. NaOH [3] | SMILES | IC50 [1] [nM] | Concentrations reached in corneal epithelium and stroma and in Descemet membrane and endothelium, relative to IC50 ([2]; FIG. 1, ex vivo bovine eye distribution)
798 | 46 nM | Clear solution | ≥ 10000 | 6.04 |  | COCCOCCOCCOCCN(CCCNC(=O)c1nc(NC(=O)c2cc(NC(=O)CCNC(=O)c3nc(NC(=O)CCCNC(=O)c4cc(NC(=O)c5nc(NC(=O)CCNC(=O)c6cc(NC(=O)c7nccn7C)cn6C)cn5C)cn4C)cn3C)cn2C)cn1C)CCOCCOCCOCCOC [Compound 201] | 167 | above the IC50 for preventing foci formation as well as above the IC50 for preventing abnormal splicing events
 |  | Clear solution | ≥ 4030 | 3.10 | 6.24 | CN1CC2(CCN(C(=O)CCNC(=O)c3nc(NC(=O)c4cc(NC(=O)CCNC(=O)c5nc(NC(=O)CCCNC(=O)c6cc(NC(=O)c7nc(NC(=O)CCNC(=O)c8cc(NC(=O)c9nccn9C)cn8C)cn7C)cn6C)cn5C)cn4C)cn3C)CC2)C1 [Compound 202] | 213 | 
 |  | Clear solution | ≥ 3780 | 2.32 | 6.73 | Cn1cc(NC(=O)c2nc(NC(=O)CCNC(=O)c3cc(NC(=O)c4nccn4C)cn3C)cn2C)cc1C(=O)NCCCC(=O)Nc1cn(C)c(C(=O)NCCC(=O)Nc2cc(C(=O)Nc3cn(C)c(C(=O)NCCC(=O)N4CCC(C5CNC5)CC4)n3)n(C)c2)n1 [Compound 204] | 518 | 
 |  | Clear solution | ≥ 10000 |  |  | Cn1cc(NC(=O)c2nc(NC(=O)CCNC(=O)c3cc(NC(=O)c4nccn4C)cn3C)cn2C)cc1C(=O)NCCCC(=O)Nc1cn(C)c(C(=O)NCCC(=O)Nc2cc(C(=O)Nc3cn(C)c(C(=O)NCCC(=O)N4CCC(C#CC#CC5CCNCC5)CC4)n3)n(C)c2)n1 [Compound 207] | 33 | 
 |  | Clear solution | ≥ 10000 | 2.14 |  | Cn1cc(NC(=O)c2nccn2C)cc1C(=O)NCCC(=O)Nc1cn(C)c(C(=O)Nc2cc(C(=O)NCC[C@@H](N)C(=O)Nc3cn(C)c(C(=O)NCCC(=O)Nc4cc(C(=O)Nc5cn(C)c(C(=O)NCCC(=O)N6CCC(C#CC#CC7CCNCC7)CC6)n5)n(C)c4)n3)n(C)c2)n1 [Compound 210] | 715 | 
 |  | Clear solution | ≥ 10000 | 2.16 |  | CCCCn1cc(NC(=O)c2nc(NC(=O)CCNC(=O)c3cc(NC(=O)c4nccn4C)cn3C)cn2C)cc1C(=O)NCC[C@@H](N)C(=O)Nc1cn(C)c(C(=O)NCCC(=O)Nc2cc(C(=O)Nc3cn(C)c(C(=O)NCCC(=O)N4CCN(C)CC4)n3)n(C)c2)n1 [Compound 214] | 237 | 

The remaining lines, values behind:

SMILES | Cornea, R1 [2] [nM] | Descemet Membrane/endothelial cells, R1 [2] | Result [3] | solubility [3] [µg/mL] | pH [3] | pH after aq. NaOH [3] | IC50 [1] [nM] | Concentrations reached in corneal epithelium and stroma and in Descemet membrane and endothelium, relative to IC50 ([2]; FIG. 1, ex vivo bovine eye distribution)
CN1CC(C2CCN(C(=O)CCNC(=O)c3nc(NC(=O)c4cc(NC(=O)CCNC(=O)c5nc(NC(=O)CCCNC(=O)c6cc(NC(=O)c7nc(NC(=O)CCNC(=O)c8cc(NC(=O)c9nccn9C)cn8C)cn7C)cn6C)cn5C)cn4C)cn3C)CC2)C1 [Compound 203] |  |  | Clear solution | ≥ 3180 | 8.04 |  | 384 | 
CN(C)CCOCCNC(=O)c1nc(NC(=O)c2cc(NC(=O)CCNC(=O)c3nc(NC(=O)CCCNC(=O)c4cc(NC(=O)c5nc(NC(=O)CCNC(=O)c6cc(NC(=O)c7nccn7C)cn6C)cn5C)cn4C)cn3C)cn2C)cn1C [Compound 205] |  |  | Clear solution | ≥ 1000 | 7.62 |  | 65 | 
Cn1cc(NC(=O)c2nc(NC(=O)CCNC(=O)c3cc(NC(=O)c4nccn4C)cn3C)cn2C)cc1C(=O)NCCCC(=O)Nc1cn(C)c(C(=O)NCCC(=O)Nc2cc(C(=O)Nc3cn(C)c(C(=O)NCCCN4CCOCC4)n3)n(C)c2)n1 [Compound 206] |  |  | Clear solution | ≥ 1000 | 4.96 |  | 172 | 
Cn1cc(NC(=O)c2nc(NC(=O)CCNC(=O)c3cc(NC(=O)c4nccn4C)cn3C)cn2C)cc1C(=O)NCCCC(=O)Nc1cn(C)c(C(=O)NCCC(=O)Nc2cc(C(=O)Nc3cn(C)c(C(=O)NCCC(=O)N4CCC5(CC4)CNC5)n3)n(C)c2)n1 [Compound 208] |  |  | Clear solution | ≥ 3530 | 2.75 | 6.07 | 186 | 
CN1CCN(C(=O)CCNC(=O)c2nc(NC(=O)c3cc(NC(=O)CCNC(=O)c4nc(NC(=O)[C@H](N)CCNC(=O)c5cc(NC(=O)c6nc(NC(=O)CCNC(=O)c7cc(NC(=O)c8nccn8C)cn7C)cn6C)cn5C)cn4C)cn3C)cn2C)CC1 [Compound 209] |  |  | Clear solution | ≥ 10000 | 2.21 |  | 1650 | 
CN(C)CCCCNC(=O)c1nc(NC(=O)c2cc(NC(=O)CCNC(=O)c3nc(NC(=O)[C@H](N)CCNC(=O)c4cc(NC(=O)c5nc(NC(=O)CCNC(=O)c6cc(NC(=O)c7nccn7C)cn6C)cn5C)cn4C)cn3C)cn2C)cn1C [Compound 211] |  |  | Clear solution | ≥ 10000 | 2.14 |  | 1640 | 
COCCOCCOCCOCCOCCOCCOc1ccc(C#CCNCCCNC(=O)c2nc(NC(=O)c3cc(NC(=O)CCNC(=O)c4nc(NC(=O)CCCNC(=O)c5cc(NC(=O)c6nc(NC(=O)CCNC(=O)c7cc(NC(=O)c8nccn8C)cn7C)cn6C)cn5C)cn4C)cn3C)cn2C)cc1 [Compound 212] |  |  | Clear solution | ≥ 10000 | 1.97 |  | 378 | 
Cn1cc(NC(=O)c2nc(NC(=O)CCNC(=O)c3cc(NC(=O)c4nccn4C)cn3C)cn2C)cc1C(=O)NCCCC(=O)Nc1cn(C)c(C(=O)NCCC(=O)Nc2cc(C(=O)Nc3cn(C)c(C(=O)NCCC(=O)N4CCC(N5CCNCC5)CC4)n3)n(C)c2)n1 [Compound 213] | 50 | BQL | Clear solution | ≥ 3210 | 6.64 |  | 892 | 
